According to ChEMBL document CHEMBL4184210, “Optimization of novel monobactams with activity against carbapenem-resistant Enterobacteriaceae - Identification of LYS228” (Bioorg Med Chem Lett, 2018):
Converted amounts (≈) assume the structure as drawn.

What was measured:
Escherichia coli [1] = experiment: Antimicrobial activity against Escherichia coli expressing beta-lactamase KPC-2 by CLSI broth microdilution method; format: functional
Escherichia coli [2] = experiment: Antimicrobial activity against Escherichia coli expressing beta-lactamase NDM-1 by CLSI broth microdilution method; format: functional
[3] = Chemical stability in pH 7.4 potassium phosphate buffer assessed as half life for compound hydrolysis at 37 degC by UPLC and mass spectrometry; format: physicochemical
Pseudomonas aeruginosa [4] = experiment: Antimicrobial activity against Pseudomonas aeruginosa ATCC 27853 by CLSI broth microdilution method; format: functional
Pseudomonas aeruginosa [5] = experiment: Antimicrobial activity against Pseudomonas aeruginosa expressing delta-mexB/delta-mexXY/delta-mexCD and delta-ampC mutant by CLSI broth microdilution method; format: functional
Pseudomonas aeruginosa [6] = experiment: Antimicrobial activity against Pseudomonas aeruginosa expressing nalB/delta-mexXY/delta-mexCDoprJ/delta-ampC by CLSI broth microdilution method; format: functional
Pseudomonas aeruginosa [7] = experiment: Antimicrobial activity against Pseudomonas aeruginosa expressing delta-mexB/mexXY/delta-ampDh2/ delta-ampD by CLSI broth microdilution method; format: functional
Escherichia coli [8] = experiment: microbe, parasite or virus in culture
Description: Antimicrobial activity against wild type Escherichia coli by CLSI broth microdilution method

Escherichia coli [9] = experiment: microbe, parasite or virus in culture; remark: listed apart in the source
Description: Antimicrobial activity against Escherichia coli expressing beta-lactamase CTXM-15 by CLSI broth microdilution method

Escherichia coli [10] = experiment: microbe, parasite or virus in culture; remark: listed apart in the source
Description: Antimicrobial activity against Escherichia coli expressing beta-lactamase SHV-12 by CLSI broth microdilution method

Escherichia coli [11] = experiment: microbe, parasite or virus in culture; remark: listed apart in the source
Description: Antimicrobial activity against Escherichia coli expressing beta-lactamase TEM-10 by CLSI broth microdilution method

Escherichia coli [12] = experiment: microbe, parasite or virus in culture; remark: listed apart in the source
Description: Antimicrobial activity against Escherichia coli expressing beta-lactamase AmpC by CLSI broth microdilution method

Escherichia coli [13] = experiment: microbe, parasite or virus in culture; remark: listed apart in the source
Description: Antimicrobial activity against Escherichia coli expressing beta-lactamase CMY-2 by CLSI broth microdilution method

Escherichia coli [14] = experiment: Antimicrobial activity against Escherichia coli expressing beta-lactamase VEB-1 by CLSI broth microdilution method; format: functional
Escherichia coli [15] = experiment: Antimicrobial activity against Escherichia coli expressing beta-lactamase TEM-1 by CLSI broth microdilution method; format: functional
Escherichia coli [16] = experiment: Antimicrobial activity against Escherichia coli expressing beta-lactamase NDM-5 by CLSI broth microdilution method; format: functional
[17] = biological target: GABA A receptor alpha-2/beta-2/gamma-2 (Homo sapiens) (UniProt P47870+P18507+P47869); experiment: Inhibition of recombinant human GABA A alpha2beta2gamma2 receptor expressed in CHO-K1 cells at 300 uM incubated at room temperature for 15 mins before the GABA addition fluorescence spectrometry; format: cell-based
Escherichia coli [18] = experiment: microbe, parasite or virus in culture; remark: listed apart in the source
Description: Antimicrobial activity against Escherichia coli expressing beta-lactamase CTXM-3 by CLSI broth microdilution method

Escherichia coli [19] = experiment: microbe, parasite or virus in culture; remark: listed apart in the source
Description: Antimicrobial activity against Escherichia coli expressing beta-lactamase GES-1 by CLSI broth microdilution method

Escherichia coli [20] = experiment: microbe, parasite or virus in culture; remark: listed apart in the source
Description: Antimicrobial activity against Escherichia coli expressing beta-lactamase IMI-1 by CLSI broth microdilution method

Escherichia coli [21] = experiment: microbe, parasite or virus in culture; remark: listed apart in the source
Description: Antimicrobial activity against Escherichia coli expressing beta-lactamase KPC-3 by CLSI broth microdilution method

Escherichia coli [22] = experiment: microbe, parasite or virus in culture; remark: listed apart in the source
Description: Antimicrobial activity against Escherichia coli expressing beta-lactamase KPC-4 by CLSI broth microdilution method

Escherichia coli [23] = experiment: microbe, parasite or virus in culture; remark: listed apart in the source
Description: Antimicrobial activity against Escherichia coli expressing beta-lactamase KPC-8 by CLSI broth microdilution method

Escherichia coli [24] = experiment: microbe, parasite or virus in culture; remark: listed apart in the source
Description: Antimicrobial activity against Escherichia coli expressing beta-lactamase NMC-A by CLSI broth microdilution method

Escherichia coli [25] = experiment: microbe, parasite or virus in culture; remark: listed apart in the source
Description: Antimicrobial activity against Escherichia coli expressing beta-lactamase PER-1 by CLSI broth microdilution method

Escherichia coli [26] = experiment: microbe, parasite or virus in culture; remark: listed apart in the source
Description: Antimicrobial activity against Escherichia coli expressing beta-lactamase PER-2 by CLSI broth microdilution method

Escherichia coli [27] = experiment: microbe, parasite or virus in culture; remark: listed apart in the source
Description: Antimicrobial activity against Escherichia coli expressing beta-lactamase PER-4 by CLSI broth microdilution method

Escherichia coli [28] = experiment: microbe, parasite or virus in culture; remark: listed apart in the source
Description: Antimicrobial activity against Escherichia coli expressing beta-lactamase SME-1 by CLSI broth microdilution method

Escherichia coli [29] = experiment: microbe, parasite or virus in culture; remark: listed apart in the source
Description: Antimicrobial activity against Escherichia coli expressing beta-lactamase VEB-4 by CLSI broth microdilution method

Escherichia coli [30] = experiment: microbe, parasite or virus in culture; remark: listed apart in the source
Description: Antimicrobial activity against Escherichia coli expressing beta-lactamase VEB-7 by CLSI broth microdilution method

Escherichia coli [31] = experiment: microbe, parasite or virus in culture; remark: listed apart in the source
Description: Antimicrobial activity against Escherichia coli expressing beta-lactamase TEM-16 by CLSI broth microdilution method

Escherichia coli [32] = experiment: microbe, parasite or virus in culture; remark: listed apart in the source
Description: Antimicrobial activity against Escherichia coli expressing beta-lactamase TEM-24 by CLSI broth microdilution method

Escherichia coli [33] = experiment: microbe, parasite or virus in culture; remark: listed apart in the source
Description: Antimicrobial activity against Escherichia coli expressing beta-lactamase TEM-47 by CLSI broth microdilution method

Escherichia coli [34] = experiment: microbe, parasite or virus in culture; remark: listed apart in the source
Description: Antimicrobial activity against Escherichia coli expressing beta-lactamase TEM-121 by CLSI broth microdilution method

Escherichia coli [35] = experiment: microbe, parasite or virus in culture; remark: listed apart in the source
Description: Antimicrobial activity against Escherichia coli expressing beta-lactamase GIM-1 by CLSI broth microdilution method

Escherichia coli [36] = experiment: microbe, parasite or virus in culture; remark: listed apart in the source
Description: Antimicrobial activity against Escherichia coli expressing beta-lactamase IMP-1 by CLSI broth microdilution method

Escherichia coli [37] = experiment: microbe, parasite or virus in culture; remark: listed apart in the source
Description: Antimicrobial activity against Escherichia coli expressing beta-lactamase SPM-1 by CLSI broth microdilution method

Escherichia coli [38] = experiment: microbe, parasite or virus in culture; remark: listed apart in the source
Description: Antimicrobial activity against Escherichia coli expressing beta-lactamase VIM-1 by CLSI broth microdilution method

Escherichia coli [39] = experiment: microbe, parasite or virus in culture; remark: listed apart in the source
Description: Antimicrobial activity against Escherichia coli expressing beta-lactamase DHA by CLSI broth microdilution method

Escherichia coli [40] = experiment: microbe, parasite or virus in culture; remark: listed apart in the source
Description: Antimicrobial activity against Escherichia coli expressing beta-lactamase MIR-1 by CLSI broth microdilution method

Escherichia coli [41] = experiment: microbe, parasite or virus in culture; remark: listed apart in the source
Description: Antimicrobial activity against Escherichia coli expressing beta-lactamase P99 by CLSI broth microdilution method

Escherichia coli [42] = experiment: microbe, parasite or virus in culture; remark: listed apart in the source
Description: Antimicrobial activity against Escherichia coli expressing beta-lactamase Oxa-10 by CLSI broth microdilution method

Escherichia coli [43] = experiment: microbe, parasite or virus in culture; remark: listed apart in the source
Description: Antimicrobial activity against Escherichia coli expressing beta-lactamase Oxa-18 by CLSI broth microdilution method

Escherichia coli [44] = experiment: microbe, parasite or virus in culture; remark: listed apart in the source
Description: Antimicrobial activity against Escherichia coli expressing beta-lactamase Oxa-23 by CLSI broth microdilution method

Escherichia coli [45] = experiment: microbe, parasite or virus in culture; remark: listed apart in the source
Description: Antimicrobial activity against Escherichia coli expressing beta-lactamase Oxa-40 by CLSI broth microdilution method

Escherichia coli [46] = experiment: microbe, parasite or virus in culture; remark: listed apart in the source
Description: Antimicrobial activity against Escherichia coli expressing beta-lactamase Oxa-48 by CLSI broth microdilution method

Escherichia coli [47] = experiment: microbe, parasite or virus in culture; remark: listed apart in the source
Description: Antimicrobial activity against Escherichia coli expressing beta-lactamase Oxa-51 by CLSI broth microdilution method

Escherichia coli [48] = experiment: microbe, parasite or virus in culture; remark: listed apart in the source
Description: Antimicrobial activity against Escherichia coli expressing beta-lactamase Oxa-146 by CLSI broth microdilution method

Escherichia coli [49] = experiment: microbe, parasite or virus in culture; remark: listed apart in the source
Description: Antimicrobial activity against Escherichia coli expressing beta-lactamase Oxa-160 by CLSI broth microdilution method

Escherichia coli [50] = experiment: microbe, parasite or virus in culture; remark: listed apart in the source
Description: Antimicrobial activity against Escherichia coli expressing beta-lactamase Oxa-181 by CLSI broth microdilution method

Escherichia coli [51] = experiment: microbe, parasite or virus in culture; remark: listed apart in the source
Description: Antimicrobial activity against Escherichia coli expressing beta-lactamase Oxa-225 by CLSI broth microdilution method

Structure (SMILES): CC(C)(O/N=C(\C(=O)N[C@@H]1C(=O)N(S(=O)(=O)O)[C@@H]1Cn1cncn1)c1csc(N)n1)C(=O)O (stereo in doubt)
- MIC (Escherichia coli [1]): 1 µg/mL (≈ 1.99 µM)
- MIC (Escherichia coli [2]): 0.5 µg/mL (≈ 0.995 µM)
- half-life [3]: 233 h
- MIC (Pseudomonas aeruginosa [4]): 32 µg/mL (≈ 63.7 µM)
- MIC (Pseudomonas aeruginosa [5]): 1 µg/mL (≈ 1.99 µM)
- MIC (Pseudomonas aeruginosa [6]): > 64 µg/mL
- MIC (Pseudomonas aeruginosa [7]): > 64 µg/mL
- MIC (Escherichia coli [8]): 0.5 µg/mL (≈ 0.995 µM)
- MIC (Escherichia coli [9]): 0.5 µg/mL (≈ 0.995 µM)
- MIC (Escherichia coli [10]): 1 µg/mL (≈ 1.99 µM)
- MIC (Escherichia coli [11]): 1 µg/mL (≈ 1.99 µM)
- MIC (Escherichia coli [12]): 16 µg/mL (≈ 31.8 µM)
- MIC (Escherichia coli [13]): 8 µg/mL (≈ 15.9 µM)

Structure (SMILES): N=C(NC1CCNCC1)c1ccc(OC[C@H](O/N=C(\C(=O)N[C@@H]2C(=O)N(S(=O)(=O)O)[C@@H]2Cn2cncn2)c2csc(N)n2)C(=O)O)cc1 (stereo in doubt)
- MIC (Escherichia coli [1]): 0.125 µg/mL (≈ 0.177 µM)
- MIC (Escherichia coli [14]): 64 µg/mL (≈ 90.7 µM)
- MIC (Escherichia coli [15]): 0.25 µg/mL (≈ 0.354 µM)
- MIC (Escherichia coli [2]): 0.125 µg/mL (≈ 0.177 µM)
- MIC (Escherichia coli [16]): 0.5 µg/mL (≈ 0.708 µM)
- MIC (Pseudomonas aeruginosa [4]): 2 µg/mL (≈ 2.83 µM)
- MIC (Pseudomonas aeruginosa [5]): 1 µg/mL (≈ 1.42 µM)
- MIC (Pseudomonas aeruginosa [6]): 8 µg/mL (≈ 11.3 µM)
- MIC (Pseudomonas aeruginosa [7]): 16 µg/mL (≈ 22.7 µM)
- inhibition [17]: 35%
- MIC (Escherichia coli [8]): 0.125 µg/mL (≈ 0.177 µM)
- MIC (Escherichia coli [18]): 0.125 µg/mL (≈ 0.177 µM)
- MIC (Escherichia coli [9]): 0.125 µg/mL (≈ 0.177 µM)
- MIC (Escherichia coli [19]): 0.25 µg/mL (≈ 0.354 µM)
- MIC (Escherichia coli [20]): 0.125 µg/mL (≈ 0.177 µM)
- MIC (Escherichia coli [21]): 0.25 µg/mL (≈ 0.354 µM)
- MIC (Escherichia coli [22]): 1 µg/mL (≈ 1.42 µM)
- MIC (Escherichia coli [23]): 0.5 µg/mL (≈ 0.708 µM)
- MIC (Escherichia coli [24]): 0.125 µg/mL (≈ 0.177 µM)
- MIC (Escherichia coli [25]): > 64 µg/mL
- MIC (Escherichia coli [26]): > 64 µg/mL
- MIC (Escherichia coli [27]): > 64 µg/mL
- MIC (Escherichia coli [10]): 0.5 µg/mL (≈ 0.708 µM)
- MIC (Escherichia coli [28]): 0.125 µg/mL (≈ 0.177 µM)
- MIC (Escherichia coli [29]): 64 µg/mL (≈ 90.7 µM)
- MIC (Escherichia coli [30]): 64 µg/mL (≈ 90.7 µM)
- MIC (Escherichia coli [11]): 1 µg/mL (≈ 1.42 µM)
- MIC (Escherichia coli [31]): 0.25 µg/mL (≈ 0.354 µM)
- MIC (Escherichia coli [32]): 0.5 µg/mL (≈ 0.708 µM)
- MIC (Escherichia coli [33]): 0.125 µg/mL (≈ 0.177 µM)
- MIC (Escherichia coli [34]): 1 µg/mL (≈ 1.42 µM)
- MIC (Escherichia coli [35]): 0.125 µg/mL (≈ 0.177 µM)
- MIC (Escherichia coli [36]): 0.125 µg/mL (≈ 0.177 µM)
- MIC (Escherichia coli [37]): 0.125 µg/mL (≈ 0.177 µM)
- MIC (Escherichia coli [38]): 0.125 µg/mL (≈ 0.177 µM)
- MIC (Escherichia coli [12]): 0.25 µg/mL (≈ 0.354 µM)
- MIC (Escherichia coli [39]): 1 µg/mL (≈ 1.42 µM)
- MIC (Escherichia coli [13]): 0.5 µg/mL (≈ 0.708 µM)
- MIC (Escherichia coli [40]): 0.25 µg/mL (≈ 0.354 µM)
- MIC (Escherichia coli [41]): 0.5 µg/mL (≈ 0.708 µM)
- MIC (Escherichia coli [42]): 0.125 µg/mL (≈ 0.177 µM)
- MIC (Escherichia coli [43]): 32 µg/mL (≈ 45.3 µM)
- MIC (Escherichia coli [44]): 0.125 µg/mL (≈ 0.177 µM)
- MIC (Escherichia coli [45]): 0.25 µg/mL (≈ 0.354 µM)
- MIC (Escherichia coli [46]): 0.125 µg/mL (≈ 0.177 µM)
- MIC (Escherichia coli [47]): 0.125 µg/mL (≈ 0.177 µM)
- MIC (Escherichia coli [48]): 1 µg/mL (≈ 1.42 µM)
- MIC (Escherichia coli [49]): 0.25 µg/mL (≈ 0.354 µM)
- MIC (Escherichia coli [50]): 0.25 µg/mL (≈ 0.354 µM)
- MIC (Escherichia coli [51]): 0.25 µg/mL (≈ 0.354 µM)
